This note sets out measurements from US20230121689A1, “CEPHALOSPORIN ANTIBACTERIAL COMPOUND AND PHARMACEUTICAL APPLICATION THEREOF” (priority 2020, published 2023).

In brackets after ≈: the same amount, converted by molar mass. Where two headings read alike, the source gives them in different places. A value given as a limit tells only on which side of the number the result lay.

Common to all, as to format: cell-based
For assay [1], the system named is Carbapenem-resistant Acinetobacter baumannii (CRAB). The assay is described as follows: Test Example 1: antibacterial activity test (MIC). As for the experimental part:
(§1) The test compounds were diluted in a gradient and used for an MIC assay on the test strains. The test compounds at an initial assay concentration of 32 μg/mL were diluted in a 2-fold gradient (11 concentration points in total), and two duplicate wells were set for each concentration. Additional wells without drug dosing were set as growth controls. The minimum inhibitory concentration (MIC) assay was performed with reference to the Clinical and Laboratory Standards Institute (CLSI) guidelines.
(§2) After the frozen strains were subcultured, a single colony was picked and re-suspended in normal saline or sterile water in a tube. The bacterial suspension was vortexed and adjusted to 0.5 McF using a spectrophotometer at the wavelength of 530 nm. The bacterial solution was taken by a pipette, added to a culture medium, diluted and mixed well, and seeded to a bacterial assay plate.
(§3) The 96-well plate was affixed with a disposable sealing film, shaken and mixed well, and visually observed using a plate reader. The minimum concentration of the compounds capable of inhibiting the growth of bacteria was defined as MIC as compared to the growth controls.

Assay [2] deals with Carbapenem-resistant Enterobacteriaceae (CRE). The assay is described as follows: Test Example 1: antibacterial activity test (MIC). Here is the method: as §1, §2, §3
Assay [3] deals with Carbapenem-resistant Pseudomonas aeruginosa (CRPA). The assay is described as follows: Test Example 1: antibacterial activity test (MIC). Here is the method: as §1, §2, §3
Assay [4] concerns Carbapenem-resistant Acinetobacter baumannii (CRAB, Acinetobacter baumannii). The assay is described as follows: Test Example 2: antibacterial activity test (MIC). Here is the method: (§4) 1. The test compounds were dissolved in sterile normal saline, vortexed for uniformly mixing, and diluted in a 2-fold dilution with the sterile normal saline (11 concentration points in total). The test concentration range was 32-0.031 μg/mL, and two duplicate wells were set for each concentration. Additional wells without drug dosing were set as growth controls. 2. 4 μL of the diluent was added to 196 μL of the bacterial suspension in a 96-well plate (the bacterial count in the bacterial suspension was 2-8×10^5 colony forming units/mL). 3.
(§5) The minimum inhibitory concentration (MIC) assay was performed with reference to the Clinical and Laboratory Standards Institute (CLSI) guidelines.

The test system of assay [5] is Carbapenem-resistant Enterobacteriaceae (CRE, Klebsiella pneumoniae). Kind of assay: Test Example 2: antibacterial activity test (MIC). Here is the method:
as §4, §5

In assay [6] the test system is Carbapenem-resistant Pseudomonas aeruginosa (CRPA, Pseudomonas aeruginosa). Kind of assay: Test Example 2: antibacterial activity test (MIC). As for the experimental part:
as §4, §5

The test system of assay [7] is Control Strain Pseudomonas aeruginosa ATCC 27853. Kind of assay: Test Example 2: antibacterial activity test (MIC). Here is the method:
as §4, §5

Assay [8] relates to Control strain Escherichia coli ATCC 25922. The assay is described as follows: Test Example 2: antibacterial activity test (MIC). Here is the method:
as §4, §5

A word on the MIC: it is the lowest concentration that inhibits growth of the organism. As to `C[C@@H](O)[C@H]1C(=O)N2C(C(=O)O)=C(S[C@@H]3CN[C@H](C(=O)N(C)C)C3)[C@H](C)[C@H]12` [Meropenem, reference compound], the minimal inhibitory concentration (MIC) in assay [1] (CRAB strain No. 100085) is 32 mg/L (≈ 83.4 µM); in assay [1] (CRAB strain No. 100333), more than 32 mg/L; in assay [1] (CRAB strain No. 110440) it was 32 mg/L (≈ 83.4 µM); in assay [1] (CRAB strain No. 110477) it was more than 32 mg/L; in assay [1] (CRAB strain No. 110517), 32 mg/L (≈ 83.4 µM); in assay [2] (CRE strain No. 100109), more than 32 mg/L. In addition, the minimal inhibitory concentration (MIC) in assay [2] (CRE strain No. 100186) is more than 32 mg/L; in assay [2] (CRE strain No. 110502), 32 mg/L (≈ 83.4 µM); in assay [2] (CRE strain No. 110525) it was 32 mg/L (≈ 83.4 µM); in assay [2] (CRE strain No. 311277) it was 32 mg/L (≈ 83.4 µM); in assay [3] (CRPA strain No. 100110), 32 mg/L (≈ 83.4 µM); in assay [3] (CRPA strain No. 110163) it was 24 mg/L (≈ 62.6 µM). The MIC in assay [3] (CRPA strain No. 110224) is 16 mg/L (≈ 41.7 µM); in assay [3] (CRPA strain No. 110358) it was 4 mg/L (≈ 10.4 µM); in assay [3] (CRPA strain No. 110390), 12 mg/L (≈ 31.3 µM); in assay [4] (CAMHB, FDA-CDC AR-BANK #0036, read-out: CAMHB MIC), more than 32 mg/L; in assay [4] (CAMHB, FDA-CDC AR-BANK #0052, read-out: CAMHB MIC) it was 16 mg/L (≈ 41.7 µM); in assay [4] (CAMHB, FDA-CDC AR-BANK #0063, read-out: CAMHB MIC) it was more than 32 mg/L. The MIC in assay [4] (CAMHB, FDA-CDC AR-BANK #0070, read-out: CAMHB MIC) is 8 mg/L (≈ 20.9 µM); in assay [4] (CAMHB, FDA-CDC AR-BANK #0101, read-out: CAMHB MIC), more than 32 mg/L; in assay [5] (read-out: CAMHB MIC, CAMHB, FDA-CDC AR-BANK #0361), 16 mg/L (≈ 41.7 µM); in assay [5] (read-out: CAMHB MIC, CAMHB, FDA-CDC AR-BANK #0362), more than 32 mg/L; in assay [5] (read-out: CAMHB MIC, CAMHB, FDA-CDC AR-BANK #0363), 32 mg/L (≈ 83.4 µM); in assay [5] (read-out: CAMHB MIC, CAMHB, FDA-CDC AR-BANK #0438), more than 32 mg/L. Further, the MIC in assay [5] (read-out: CAMHB MIC, CAMHB, FDA-CDC AR-BANK #0453) was more than 32 mg/L; in assay [6] (CAMHB, FDA-CDC AR-BANK #0439, read-out: CAMHB MIC), more than 32 mg/L; in assay [6] (CAMHB, FDA-CDC AR-BANK #0441, read-out: CAMHB MIC) it was more than 32 mg/L; in assay [6] (CAMHB, FDA-CDC AR-BANK #0444, read-out: CAMHB MIC), more than 32 mg/L; in assay [6] (CAMHB, FDA-CDC AR-BANK #0457, read-out: CAMHB MIC) it was more than 32 mg/L; in assay [7] (ATCC27853, CAMHB, ATCC 27853, read-out: CAMHB MIC), 0.5 mg/L (≈ 1.3 µM). Further, the minimal inhibitory concentration (MIC) in assay [8] (ATCC25922, CAMHB, ATCC 25922, read-out: CAMHB MIC) was not above 0.0312 mg/L.
Regarding `C[C@H](CN(CCCNC(=O)c1ccc(O)c(O)c1Cl)C(=O)c1ccc(O)c(O)c1Cl)[N+]1(CC2=C(C(=O)O)N3C(=O)[C@@H](NC(=O)/C(=N\OC(C)(C)C(=O)O)c4csc(N)n4)[C@H]3SC2)CCCC1` [Compound 11], the minimum inhibitory concentration (MIC) was 0.5 mg/L in assay [4] (read-out: ID-CAMHB, MIC, ID-CAMHB, FDA-CDC AR-BANK #0036 (strB, OXA-65, OXA-24, strA, sul2)); 0.125 mg/L in assay [4] (read-out: ID-CAMHB, MIC, ID-CAMHB, FDA-CDC AR-BANK #0052 (OXA-58, OXA-100, sul2)); 4 mg/L in assay [4] (read-out: ID-CAMHB, MIC, ID-CAMHB, FDA-CDC AR-BANK #0063 (OXA-23, OXA-65, OXA-24, sul2)); 0.25 mg/L in assay [4] (read-out: ID-CAMHB, MIC, ID-CAMHB, FDA-CDC AR-BANK #0070 (OXA-58, OXA-100, sul2)); 1 mg/L in assay [4] (read-out: ID-CAMHB, MIC, ID-CAMHB, FDA-CDC AR-BANK #0101 (strB, OXA-65, OXA-24, strA, sul2)); 1 mg/L in assay [5] (read-out: ID-CAMHB, MIC, ID-CAMHB, FDA-CDC AR-BANK #0361 (TEM-1; SHV-12; KPC-2)). Also, the MIC in assay [5] (read-out: ID-CAMHB, MIC, ID-CAMHB, FDA-CDC AR-BANK #0362 (TEM-1; SHV-11; KPC-2)) came to 0.25 mg/L; in assay [5] (read-out: ID-CAMHB, MIC, ID-CAMHB, FDA-CDC AR-BANK #0363 (TEM-1; SHV-12; KPC-2)), 0.5 mg/L; in assay [5] (read-out: ID-CAMHB, MIC, ID-CAMHB, FDA-CDC AR-BANK #0438 (aph(3′)-Ia, dfrA12, KPC-3, OmpK35, oqxA, oqxB, SHV-11)), 1 mg/L; in assay [5] (read-out: ID-CAMHB, MIC, ID-CAMHB, FDA-CDC AR-BANK #0453 (KPC-3, OmpK35, oqxA, oqxB, SHV-11, TEM-1B)), 1 mg/L; in assay [6] (read-out: ID-CAMHB, MIC, ID-CAMHB, FDA-CDC AR-BANK #0439 (aac(6′)-Il, aadA1b, BCR1, IMP-18, OXA-50)), 0.5 mg/L; in assay [6] (read-out: ID-CAMHB, MIC, ID-CAMHB, FDA-CDC AR-BANK #0441 (KPC-2)) it was 8 mg/L. Moreover, the MIC came out at 4 mg/L in assay [6] (read-out: ID-CAMHB, MIC, ID-CAMHB, FDA-CDC AR-BANK #0444 (aac(6′)-Il, dfrB5, OXA-4, tet(G), VIM-2)); 0.25 mg/L in assay [6] (read-out: ID-CAMHB, MIC, ID-CAMHB, FDA-CDC AR-BANK #0457 (aadA6, VIM-2)); 0.0625 mg/L in assay [7] (ATCC27853, read-out: ID-CAMHB, MIC); 0.125 mg/L in assay [8] (ATCC25922, read-out: ID-CAMHB, MIC).
